According to US8871728B2, “Non-peptide macrocyclic histone deacetylese (HDAC) inhibitors and methods of making and using thereof” (Georgia Tech Research Corporation, priority 2007, dated 2014):
Values after ≈ are worked out from the molar mass of the structure shown. Read-outs that look alike come from different tables or passages of the source.

What was measured:
HDAC8 [1] = biological target: T1, HDAC8 (Homo sapiens (Human), UniProt Q9BY41); experiment: Fluor de Lys HDAC8 inhibition; assay type: biochemical; details: average of three independent experiments; Table 4; read-out: HDAC 8
T1 sequence (Q9BY41 whole entry): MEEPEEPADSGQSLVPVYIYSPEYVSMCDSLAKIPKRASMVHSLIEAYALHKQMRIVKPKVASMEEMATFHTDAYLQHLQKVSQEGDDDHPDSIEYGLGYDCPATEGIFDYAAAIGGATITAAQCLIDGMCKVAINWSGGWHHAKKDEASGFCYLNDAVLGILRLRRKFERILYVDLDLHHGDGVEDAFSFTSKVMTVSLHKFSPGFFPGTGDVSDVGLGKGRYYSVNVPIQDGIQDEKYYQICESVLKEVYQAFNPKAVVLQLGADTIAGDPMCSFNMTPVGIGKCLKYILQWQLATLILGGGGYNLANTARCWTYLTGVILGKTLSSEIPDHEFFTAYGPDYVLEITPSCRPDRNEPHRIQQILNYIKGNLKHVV

[2] = system: HeLa nuclear extract HDAC1/2; experiment: Fluor de Lys HDAC inhibition, HeLa nuclear extract; assay type: biochemical, human
Description: Fluor de Lys™ is a fluorescence based HDAC activity assay comprising a combination of fluorogenic Histone deAcetylase Lysyl substrate and a developer. The kit is a highly sensitive and convenient alternative to radiolabeled, acetylated histones or peptide/HPLC methods for the assay of histone deacetylases. This assay is based on the ability of HeLa nuclear extract, which is enriched in HDAC activity, to mediate the deacetylation of the acetylated lysine side chain of the Fluor de Lys substrate. The assay procedure requires two steps. First, incubation of the HeLa nuclear extract with the Fluor de Lys substrate results in substrate deacetylation and thus sensitizes it to the second step. In the second step, treatment of the deacetylated substrate with the Fluor de Lys developer produces a fluorophore. The substrate-developer reaction, under normal circumstances goes to completion in less than 1 min at 25° C. The kit used was the Fluorimetric Assay/Drug Discovery Kit—AK-500 Manual Fluorescent Assay System available from BIOMOL® International, Plymouth Meeting, Pa.
Each IC50 value was obtained by averaging three independent experiments.

[3] = system: promastigote stage of L. donovani; experiment: Antileishmanial Alamar blue fluorometric assay; assay type: cell-based; details: promastigotes
Method: (§1) The compounds described herein were also evaluated for parasitic activity against Plasmodium falciparum and Leismania donovani. P. falciparum and L. donovani are the causative parasites of malaria and leishmaniasis, two human diseases which constitute a serious threat to public health in tropical and sub-tropical countries. Antimalarial activity was evaluated in vitro using chloroquine-sensitive (D6, Sierra Leone) and chloroquine-resistant (W2, Indochina) strains of P. falciparum. Antileishmanial activity was evaluated in vitro against the promastigote stage of L. donovani.
(§2) Plasmodium growth inhibition was determined by a parasite lactate dehydrogenase assay using Malstat reagent. Inhibition of viability of the promastigote stage of L. donovani was determined using standard Alamar blue assay, modified to a fluorometric assay.
as §1, with “Macrocyclic histone deacetylase inhibitors” for “The compounds described herein”, “were” for “were also”
as §2

[4] = system: Plasmodium falciparum (D6 clone), chloroquine-sensitive; experiment: Plasmodium growth inhibition, parasite lactate dehydrogenase assay (Malstat); assay type: cell-based; details: for IC50: Plasmodium falciparum; for Plasmodium falciparum (D6 clone) IC50: chloroquine-sensitive
Method: as §1, §2
as §1, with “Macrocyclic histone deacetylase inhibitors” for “The compounds described herein”, “were” for “were also”
as §2

[5] = system: Plasmodium falciparum (W2 clone), chloroquine-resistant; experiment: as above; assay type: cell-based; details: for IC50: Plasmodium falciparum; for Plasmodium falciparum (W2 clone) IC50: chloroquine-resistant
Method: as §1, §2
as §1, with “Macrocyclic histone deacetylase inhibitors” for “The compounds described herein”, “were” for “were also”
as §2

HDAC6 = HDAC6 (Homo sapiens (Human), UniProt Q9UBN7); experiment: SAMDI mass spectrometry HDAC inhibition assay; assay type: biochemical; details: for inhibition at 10 µM: read-out: HDAC6 % inhibition; for HDAC6 inhibition, symbol / IC50: SAMDI; for IC50: read-out: HDAC6 IC50
Sequence of HDAC6 (Q9UBN7 whole entry): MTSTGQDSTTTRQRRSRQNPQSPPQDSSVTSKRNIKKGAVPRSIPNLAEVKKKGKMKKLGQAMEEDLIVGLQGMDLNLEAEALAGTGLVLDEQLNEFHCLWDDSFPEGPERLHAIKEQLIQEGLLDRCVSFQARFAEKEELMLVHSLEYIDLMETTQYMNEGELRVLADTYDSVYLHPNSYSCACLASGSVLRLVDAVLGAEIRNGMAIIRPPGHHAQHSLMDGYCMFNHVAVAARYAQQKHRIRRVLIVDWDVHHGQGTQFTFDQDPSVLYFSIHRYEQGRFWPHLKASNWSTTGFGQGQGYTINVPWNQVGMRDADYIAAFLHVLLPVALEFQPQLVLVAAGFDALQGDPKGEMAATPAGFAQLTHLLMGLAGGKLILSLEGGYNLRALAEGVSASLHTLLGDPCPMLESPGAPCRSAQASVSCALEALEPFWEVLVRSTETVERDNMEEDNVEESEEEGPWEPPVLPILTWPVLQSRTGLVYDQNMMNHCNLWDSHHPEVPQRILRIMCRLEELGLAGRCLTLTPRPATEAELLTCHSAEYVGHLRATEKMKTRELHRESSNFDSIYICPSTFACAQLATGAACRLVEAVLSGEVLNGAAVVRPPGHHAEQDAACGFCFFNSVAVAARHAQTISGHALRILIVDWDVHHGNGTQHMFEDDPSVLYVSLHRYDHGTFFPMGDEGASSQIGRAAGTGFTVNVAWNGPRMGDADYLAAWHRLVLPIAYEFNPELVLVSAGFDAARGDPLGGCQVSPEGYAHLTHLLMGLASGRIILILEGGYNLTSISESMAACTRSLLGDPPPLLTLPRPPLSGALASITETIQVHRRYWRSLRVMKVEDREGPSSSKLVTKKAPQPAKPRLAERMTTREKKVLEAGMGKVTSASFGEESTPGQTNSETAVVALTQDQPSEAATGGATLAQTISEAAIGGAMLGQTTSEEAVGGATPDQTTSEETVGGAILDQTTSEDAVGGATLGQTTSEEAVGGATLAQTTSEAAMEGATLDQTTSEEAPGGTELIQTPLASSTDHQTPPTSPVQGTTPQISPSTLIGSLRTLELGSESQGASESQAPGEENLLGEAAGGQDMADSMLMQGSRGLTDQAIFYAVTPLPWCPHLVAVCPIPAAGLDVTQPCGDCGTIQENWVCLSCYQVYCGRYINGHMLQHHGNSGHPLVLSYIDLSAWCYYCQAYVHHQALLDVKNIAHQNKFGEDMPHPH
Method: (§3) There is precedence that fluorescently labeled substrates can perturb enzyme activity and the effect of inhibitors. […] Additionally, 3-hydroxypyridine-2-ones are highly colored solids and might lead to false positive signals. Mindful of these facts, a label-free SAMDI (self-assembled monolayers for MALDI) mass spectrometry assay was also used to assess HDAC inhibition.
The SAMDI technique, wherein self-assembled monolayers (SAM) of alkanethiolates on gold are analyzed by matrix assisted laser desorption/ionization (MALDI) mass spectrometry, has been widely used to characterize many biochemical activities, including the deacetylase enzyme family. The SAMDI assay was used to measure the inhibition constant (K1) of fragments against HDAC1, HDAC6 and HDAC8 using a previously identified preferred HDAC substrate.

HDAC8 [6] = biological target: T1, HDAC8; experiment: SAMDI mass spectrometry HDAC inhibition assay; assay type: biochemical; details: for HDAC8 % inhibition / inhibition at 10 µM: at 10 μM, given if the IC50 was above 10 μM
Method: as §3
(§4) The SAMDI technique, wherein self-assembled monolayers (SAM) of alkanethiolates on gold are analyzed by matrix assisted laser desorption/ionization (MALDI) mass spectrometry, has been widely used to characterize many biochemical activities, including the deacetylase enzyme family.

HDAC1 = HDAC1 (Homo sapiens (Human), UniProt Q13547); experiment: SAMDI mass spectrometry HDAC inhibition assay; assay type: biochemical; details: for HDAC1 inhibition, symbol: SAMDI; for HDAC1 % inhibition / inhibition at 10 µM: at 10 μM, given if the IC50 was above 10 μM
Sequence of HDAC1 (Q13547 whole entry): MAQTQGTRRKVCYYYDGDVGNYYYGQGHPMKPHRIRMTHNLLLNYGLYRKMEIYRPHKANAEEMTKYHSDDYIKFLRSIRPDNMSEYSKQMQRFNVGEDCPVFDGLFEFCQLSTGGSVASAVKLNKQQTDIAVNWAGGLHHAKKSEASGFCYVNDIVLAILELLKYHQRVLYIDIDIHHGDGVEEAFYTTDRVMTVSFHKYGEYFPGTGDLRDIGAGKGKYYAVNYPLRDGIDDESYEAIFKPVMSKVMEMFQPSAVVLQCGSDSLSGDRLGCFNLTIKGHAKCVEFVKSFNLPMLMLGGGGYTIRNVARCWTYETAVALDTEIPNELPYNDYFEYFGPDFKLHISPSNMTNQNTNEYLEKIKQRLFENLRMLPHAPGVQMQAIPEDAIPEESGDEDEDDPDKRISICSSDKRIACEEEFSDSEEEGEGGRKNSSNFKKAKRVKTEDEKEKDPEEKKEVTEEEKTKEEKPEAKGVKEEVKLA
Method: as §3, §4

[7] = HeLa nuclear extract, average of three independent experiments, Table 4, read-out: HDAC ½
[8] = D6, chloroquine-sensitive, read-out: Plasmodium falciparum (D6 clone) IC50
[9] = W2, chloroquine-resistant, read-out: Plasmodium falciparum (W2 clone) IC50

CC[C@H]1OC(=O)[C@H](C)[C@@H](O[C@H]2C[C@@](C)(OC)[C@@H](O)[C@H](C)O2)[C@H](C)[C@@H](O[C@@H]2O[C@H](C)C[C@H](N(C)Cc3ccc(NC(=O)CCCCCCC(=O)NO)cc3)[C@H]2O)[C@](C)(O)C[C@@H](C)CN(C)[C@H](C)[C@@H](O)[C@]1(C)O [Compound 36, Azithromycin-arylalkyl hydroxamic acid]
IC50 (HDAC8 [1]): 6.68 µM | IC50 [2, 7]: 107 nM

N=C(N)c1ccc(OCCCCCOc2ccc(C(=N)N)cc2)cc1 [Pentamidine, pentamidine, reference compound]
IC50 ([3]; Leishmania donovani, read-out: Antileshmanial activity IC50): 0.9 µg/mL (≈ 2.64 µM) | Antileshmanial activity IC50 [3]: 1.4 µg/mL

CC[C@H]1OC(=O)[C@H](C)[C@@H](O)[C@H](C)[C@@H](O[C@@H]2O[C@H](C)C[C@H](N(C)Cc3ccc(NC(=O)CCCCCCC(=O)NO)cc3)[C@H]2O)[C@](C)(O)C[C@@H](C)CN(C)[C@H](C)[C@@H](O)[C@]1(C)O [Compound 38, Desclasinose-azithromycin-arylalkyl hydroxamic acid]
IC50 (HDAC8 [1]): 2.32 µM | IC50 [2, 7]: 110 nM

C=C1C[C@H](CC)C(C)(C)[C@H](C)[C@@H](C)N(C)C[C@H](C)CC(C)(C)[C@H](C[C@@H]2C[C@H](C)C[C@H](N(C)Cc3ccc(C(C)C)cc3)[C@H]2C)[C@@H](C)[C@H](C)[C@H]1C [Compd 4]
IC50 ([2]; Table 8, read-out: HDAC Inhibition IC50): 88.8 nM | IC50 [4, 8]: 1.3 µg/mL (≈ 1.88 µM) | S.I. D6 ([4]; selective toxicity index, Vero versus D6): > 3.7 | IC50 [5, 9]: 1.7 µg/mL (≈ 2.46 µM) | S.I. (W2) ([5]; selective toxicity index, Vero versus W2, value in brackets): > 2.8

N#Cc1cccc(-c2ccc(Cn3cccc(O)c3=S)cc2)c1 [Compound 149b, 1-(3-Cyano-(1,1′-biphenylmethyl))-3-hydroxyoxypyridine-2-thione]
inhibition at 10 µM (HDAC6): 44% | IC50 (HDAC8 [6]; SAMDI, read-out: HDAC8 IC50): 1700 ± 717 nM | IC50 (HDAC8 [6]; SAMDI, read-out: HDAC8 activity (IC50)): ~2000 nM | HDAC1 inhibition, symbol (HDAC1): NI (No significant Inhibition (below 20% Inhibition))

O=c1c(O)cccn1CCCCCCCn1cc(-c2ccccc2)nn1 [Compound 159f, 1-Phenyltriazolylheptyl-3-hydroxypyridine-2-one]
HDAC6 % inhibition (HDAC6; at 10 μM, given if the IC50 was above 10 μM): 34% | HDAC8 % inhibition (HDAC8 [6]): 42% | HDAC1 % inhibition (HDAC1): 2%

O=c1c(O)cccn1CCCCCn1cc(-c2ccccc2)nn1 [Compound 159d, 1-Phenyltriazolylpentyl-3-hydroxypyridine-2-one]
HDAC6 inhibition, symbol (HDAC6): NI (No significant Inhibition (below 20% Inhibition)) | HDAC8 % inhibition (HDAC8 [6]): 30% | HDAC1 % inhibition (HDAC1): 43%

N#Cc1ccccc1-c1ccc(Cn2cccc(O)c2=O)cc1 [Compound 148c, 1-(2-Cyano-(1,1′-biphenylmethyl))-3-hydroxyoxypyridine-2-one]
inhibition at 10 µM (HDAC6): 5% | inhibition at 10 µM (HDAC8 [6]): 9% | HDAC1 inhibition, symbol (HDAC1): NI (No significant Inhibition (below 20% Inhibition))

Cn1cccc(O)c1=O [Compound 142a, 1-Methyl-3-hydroxypyridine-2-one]
HDAC6 inhibition, symbol (HDAC6): NI (No significant Inhibition (below 20% Inhibition)) | inhibition at 10 µM (HDAC8 [6]): 8% | HDAC1 inhibition, symbol (HDAC1): NI (No significant Inhibition (below 20% Inhibition))

N#Cc1cccc(-c2cn(CCCCCn3cccc(O)c3=O)nn2)c1 [Compound 166e, 1-(3-Benzonitrile)triazolylpentyl-3-hydroxypyridine-2-one]
HDAC6 inhibition, symbol (HDAC6): NI (No significant Inhibition (below 20% Inhibition)) | HDAC8 inhibition, symbol (HDAC8 [6]; SAMDI): NI (No significant Inhibition (below 20% Inhibition)) | inhibition at 10 µM (HDAC1): 71%

N#Cc1cccc(-c2ccc(Cn3cccc(O)c3=O)cc2)c1 [Compound 148b, 1-(3-Cyano-(1,1′-biphenylmethyl))-3-hydroxyoxypyridine-2-one]
HDAC6 inhibition, symbol (HDAC6): NI (No significant Inhibition (below 20% Inhibition)) | inhibition at 10 µM (HDAC8 [6]): 9% | HDAC1 inhibition, symbol (HDAC1): NI (No significant Inhibition (below 20% Inhibition))

Cc1cccc(-c2ccc(Cn3cccc(O)c3=S)cc2)c1 [Compound 149e, 1-(3-Methyl-(1,1′-biphenylmethyl))-3-hydroxyoxypyridine-2-thione]
IC50 (HDAC6): 812 ± 286 nM | IC50 (HDAC8 [6]; SAMDI, read-out: HDAC8 IC50): 2500 ± 1180 nM | HDAC1 inhibition, symbol (HDAC1): NI (No significant Inhibition (below 20% Inhibition))

C[C@@H]1CC[C@H]2[C@@H](C)C(=O)O[C@@H]3O[C@@]4(C)CC[C@@H]1[C@]32OO4 [Artemisinin, artemisinin, reference compound]
IC50 [4, 8]: 0.004 µg/mL (≈ 0.0142 µM) | Plasmodium falciparum (D6 clone) IC50 [4]: 6 ng/mL | IC50 [5, 9]: 0.006 µg/mL (≈ 0.0213 µM) | Plasmodium falciparum (W2 clone) IC50 [5]: 0.009 µg/mL

CN(C)c1ccc(-c2ccc(Cn3cccc(O)c3=S)cc2)cn1 [Compound 149h]
IC50 (HDAC6): 2390 ± 458 nM | inhibition at 10 µM (HDAC8 [6]): 34% | HDAC1 inhibition, symbol (HDAC1): NI (No significant Inhibition (below 20% Inhibition))

CCN(CC)CCCC(C)Nc1ccnc2cc(Cl)ccc12 (stereo not drawn) [Chloroquine, chloroquine, reference compound]
IC50 ([4]; D6, read-out: Plasmodium falciparum (D6 clone) IC50 (μg/ml), chloroquine-sensitive): 0.017 µg/mL (≈ 0.0531 µM) | Plasmodium falciparum (D6 clone) IC50 [4]: 11 ng/mL | IC50 ([5]; W2, read-out: Plasmodium falciparum (W2 clone) IC50 (μg/ml), chloroquine-resistant): 0.125 µg/mL (≈ 0.391 µM) | Plasmodium falciparum (W2 clone) IC50 [5]: 0.14 µg/mL

N#Cc1ccc(-c2cn(CCCCCn3cccc(O)c3=O)nn2)cc1C(F)(F)F [Compound 166g, 1-(4-(3-Trifluomethyl)-benzonitrile)triazolylpentyl-3-hydroxypyridine-2-one]
HDAC6 inhibition, symbol (HDAC6): NI (No significant Inhibition (below 20% Inhibition)) | inhibition at 10 µM (HDAC8 [6]): 14% | inhibition at 10 µM (HDAC1): 71%

N#Cc1ccc(-c2cn(CCCCCn3cccc(O)c3=S)nn2)cc1C(F)(F)F [Compound 167g, 1-(4-(3-Trifluomethyl)-benzonitrile)triazolylpentyl-3-hydroxypyridine-2-thione]
IC50 (HDAC6): 661 ± 121 nM | IC50 (HDAC8 [6]; SAMDI, read-out: HDAC8 IC50): 2260 nM | inhibition at 10 µM (HDAC1): 55%

O=c1c(O)cccn1Cc1cn(-c2ccccc2)nn1 [Compound 152a, 1-Phenyltriazolylmethyl-3-hydroxypyridine-2-one]
HDAC6 inhibition, symbol (HDAC6): NI (No significant Inhibition (below 20% Inhibition)) | inhibition at 10 µM (HDAC8 [6]): 17% | HDAC1 inhibition, symbol (HDAC1): NI (No significant Inhibition (below 20% Inhibition))

CN(C)c1ccc(-c2ccc(Cn3cccc(O)c3=O)cc2)cc1 [Compound 148g, 1-(4-Dimethylamino-(1,1′-biphenylmethyl))-3-hydroxyoxypyridine-2-one]
inhibition at 10 µM (HDAC6): 11% | inhibition at 10 µM (HDAC8 [6]): 35% | HDAC1 inhibition, symbol (HDAC1): NI (No significant Inhibition (below 20% Inhibition))

Cc1ccccc1-c1ccc(Cn2cccc(O)c2=O)cc1 [Compound 148f, 1-(2-Methyl-(1,1′-biphenylmethyl))-3-hydroxyoxypyridine-2-one]
HDAC6 inhibition, symbol (HDAC6): NI (No significant Inhibition (below 20% Inhibition)) | inhibition at 10 µM (HDAC8 [6]): 9% | HDAC1 inhibition, symbol (HDAC1): NI (No significant Inhibition (below 20% Inhibition))

CC[C@H]1OC(=O)[C@H](C)[C@@H](O[C@H]2C[C@@](C)(OC)[C@@H](O)[C@H](C)O2)[C@H](C)[C@@H](O[C@@H]2O[C@H](C)C[C@H](N(C)Cc3ccc(-c4cn(CCCCCCCCCC(=O)NO)nn4)cc3)[C@H]2O)[C@](C)(OC)C[C@@H](C)C(=O)[C@H](C)[C@@H](O)[C@]1(C)O [Compound 30, Clarithromycin-N-Phenyltriazolyldecahydroxamic acid]
IC50 [2, 7]: 223 nM
